Measurements: patent US20090131313A1, “LKKTET AND/OR LKKTNT PEPTIDE COMPOSITIONS AND METHODS FOR TREATING OR PREVENTING TISSUE DETERIORATION, INJURY OR DAMAGE” (REGENERX BIOPHARMACEUTICALS, INC., priority 2005, published 2009)

What was measured:
[1] = system: Human corneal epithelial cells; experiment: BrdU incorporation cell proliferation assay; format: cell-based; settings: 1 mcg/ml Tβ4, 3 and 24 hour time points
Method: (§1) Human corneal epithelial cells at approximately 80% confluence were treated with 0%, 0.001%, 0.01%, or 0.1% BAK for 15 minutes. After 3 and 24 hours of recovery in culture medium, cell proliferation was measured using a calorimetric BrdU incorporation assay. Apoptosis was measured using a calorimetric annexin-based cell death assay. […] To further assess the ability of Tb4 to prevent apoptosis, corneal epithelial cells were treated with 0.01% BAK±Tβ4 over a 5 day time course.

[2] = system: Human corneal epithelial cells; experiment: annexin-based cell death (apoptosis) assay
Method: as §1

| Substance | cell proliferation of BAK-treated cells in the presence of Tβ4 [1] | apoptosis of BAK-treated cells in the presence of Tβ4 ([2]; 1 mcg/ml Tβ4, BAK-treated cells, 3 and 24 hour time points) | apoptosis compared to cells cultured in medium alone ([2]; Tβ4-treated cells, 5 days in culture) | corneal epithelial cell apoptosis compared to control ([2]; 0.001%, 0.01% or 0.1% BAK for 15 minutes, 3 and 24 hours recovery) |
| --- | --- | --- | --- | --- |
| Thymosin beta 4 (SDKPDMAEIEKFDKSKLKKTETQEKNPLPSKETIEQEKQAGES; Thymosin beta-4; UniProt P62328 2-44, looked up) [Tβ4] | not promoted | not inhibited | decreased apoptosis |  |
| benzalkonium chloride [BAK, reference compound] |  |  |  | increased |
